Target: T1, chimeric human RORγ-Gal4 receptor (Homo sapiens, UniProt P51449)
T1 sequence (P51449 269-508 limits assumed): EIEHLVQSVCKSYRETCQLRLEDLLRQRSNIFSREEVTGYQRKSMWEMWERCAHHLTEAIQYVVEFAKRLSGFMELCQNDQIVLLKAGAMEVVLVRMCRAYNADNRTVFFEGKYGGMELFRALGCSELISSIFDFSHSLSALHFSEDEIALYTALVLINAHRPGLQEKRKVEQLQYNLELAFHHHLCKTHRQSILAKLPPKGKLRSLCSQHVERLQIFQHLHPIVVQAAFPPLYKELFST
Test: transient transactivation assay (RORγ-Gal4 luciferase reporter)
Type: cell-based
Conditions: Cos-7 cells transfected with RORγ-Gal4 and 5Gal4 pGL3 TK Luc reporter; overnight incubation; T0901317 at 10^-5 M as reference; read-out: IC50

Structure (SMILES) | IC50
Cc1cc(OC(F)(F)F)cc2c1c(Cc1c(Cl)ccc(C(=O)N3CCC(CC(=O)O)CC3)c1Cl)cn2C [DU1-1] | < 100 nM
Cc1cc(OC(F)(F)F)cc2c1cc(Cc1c(Cl)ccc(C(=O)N3CC[C@@H](C(=O)O)[C@@H](C)C3)c1Cl)n2C [DP-3, (3R,4R)-1-(2,4-dichloro-3-((1,4-dimethyl-6-(trifluoromethoxy)-1H-indol-2-yl)methyl)benzoyl)-3-methylpiperidine-4-carboxylic acid] | < 100 nM
Cc1cn(Cc2c(Cl)ccc(C(=O)N3CCC(C(=O)O)CC3)c2Cl)c2c(C)cc(OC(F)(F)F)cc12 [EG-1] | < 100 nM
Cc1cc(C#N)cc2c1cc(Cc1c(Cl)ccc(C(=O)N3CCC(OCC(=O)O)CC3)c1Cl)n2C [Example AM, 2-((1-(2,4-dichloro-3-((6-cyano-1,4-dimethyl-1H-indol-2-yl)methyl)benzoyl)piperidin-4-yl)oxy)acetic acid] | 1000 to 10000 nM
Cc1ccc(C(=O)N2CCOCC2)c(C)c1Cc1nc2c(C)cc(Br)cc2n1C [Example BR, (3-((6-bromo-1,4-dimethyl-1H-benzo[d]imidazol-2-yl)methyl)-2,4-dimethylphenyl)(morpholino)methanone] | 100 to 500 nM
Cc1ncc(C(=O)N2CCOCC2)c(C)c1Cc1cc2c(C)cc(C(F)(F)F)cc2n1C [Example BB, (5-((1,4-dimethyl-6-(trifluoromethyl)-1H-indol-2-yl)methyl)-4,6-dimethylpyridin-3-yl)(morpholino)methanone] | 500 to 1000 nM
Cc1cn(C(=O)c2c(Cl)ccc(C(=O)N3CCC(C(=O)O)CC3)c2Cl)c2c(C)cc(OC(F)(F)F)cc12 [EH-1] | 100 to 500 nM
Cc1ccc(C(=O)N2CCC(CC(=O)O)CC2)c(C)c1Cn1ccc2cc(OC(F)(F)F)cc(C)c21 [EK, 2-(1-(2,4-dimethyl-3-((7-methyl-5-(trifluoromethoxy)-1H-indol-1-yl)methyl)benzoyl)piperidin-4-yl)acetic acid] | < 100 nM
CC(=O)n1c(Cc2c(Cl)ccc(C(=O)N3CCOCC3)c2Cl)cc2c(C)cc(C(F)(F)F)cc21 [Example D-2] | < 100 nM
Cc1nn(C(=O)c2c(Cl)ccc(C(=O)N3CCC(CC(=O)O)CC3)c2Cl)c2c(C)cc(C(F)(F)F)cc12 [EA, 2-(1-(2,4-dichloro-3-(3,7-dimethyl-5-(trifluoromethyl)-1H-indazole-1-carbonyl)benzoyl)piperidin-4-yl)acetic acid] | < 100 nM
Cc1cc(C#N)cc2c1nc(Cc1c(Cl)ccc(C(=O)N3CCC(C(C)(C)O)CC3)c1Cl)n2C [BN-7] | 100 to 500 nM
Cc1cc(OC(F)(F)F)cc2ccn(C(=O)c3c(Cl)ccc(C(=O)N4CCC(CC(=O)O)CC4)c3Cl)c12 [EL, 2-(1-(2,4-dichloro-3-(7-methyl-5-(trifluoromethoxy)-1H-indole-1-carbonyl)benzoyl)piperidin-4-yl)acetic acid] | < 100 nM
Cc1cc(C(F)(F)F)cc2c1nc(Cc1c(Cl)ccc(C(=O)N3CCC(C4COC4)CC3)c1Cl)n2C [BJ-17] | < 100 nM
Cc1cn(Cc2c(Cl)ccc(C(=O)N3CCC(CC(=O)O)CC3)c2Cl)c2c(C)cc(OC(F)(F)F)cc12 [EG, 2-[1-[2,4-dichloro-3-[[3,7-dimethyl-5-(trifluoromethoxy)-1H-indol-1-yl]methyl]benzoyl]-4-piperidyl]acetic acid] | < 100 nM
Cc1cc(OC(F)(F)F)cc2ccn(Cc3c(Cl)ccc(C(=O)N4CCC(CCC(=O)O)CC4)c3Cl)c12 [EJ-2] | < 100 nM
Cc1cc(Cl)nc2c1cc(Cc1c(Cl)ccc(C(=O)N3CCOCC3)c1Cl)n2C [CM1, (2,4-dichloro-3-((6-chloro-1,4-dimethyl-1H-pyrrolo[2,3-b]pyridin-2-yl)methyl)phenyl)(morpholino)methanone] | < 100 nM
Cc1ncc(C(=O)N2CCC(C3COC3)CC2)c(C)c1C(=O)c1cc2c(C)cc(C#N)cc2n1C [Example BD, 2-[2,4-dimethyl-5-[4-(oxetan-3-yl)piperidine-1-carbonyl]pyridine-3-carbonyl]-1,4-dimethyl-indole-6-carbonitrile] | 1000 to 10000 nM
Cc1cn(C(=O)c2c(Cl)ccc(C(=O)N3CC[C@H](C(=O)O)[C@H](C)C3)c2Cl)c2c(C)cc(C(F)(F)F)cc12 [DJ1-2] | < 100 nM
Cn1c(Cc2c(Cl)ccc(C(=O)N3CCN(C4CC(C(=O)O)C4)CC3)c2Cl)cc2ccc(C(F)(F)F)cc21 (centres unmarked) [O, 3-(4-(2,4-dichloro-3-((1-methyl-6-(trifluoromethyl)-1H-indol-2-yl)methyl)benzoyl)piperazin-1-yl)cyclobutanecarboxylic acid] | 100 to 500 nM
Cc1cc(C(F)(F)F)cc2c1c(Cc1c(Cl)ccc(C(=O)N3CC[C@@H](C(=O)O)[C@@H](C)C3)c1Cl)cn2C [Example F1-3] | < 100 nM
Cc1cc(C(F)(F)F)cc2c1cc(Cc1c(Cl)cnc(C(=O)N3CCC(CC(=O)O)CC3)c1Cl)n2C [Example FH, 2-(1-(3,5-dichloro-4-((1,4-dimethyl-6-(trifluoromethyl)-1H-indol-2-yl)methyl)picolinoyl)piperidin-4-yl)acetic acid] | < 100 nM

Structure (SMILES) | IC50
Cc1cc(C(F)(F)F)cc2c1cc(Cc1c(Cl)ccc(C(=O)N3CCC(C(C)C(=O)O)CC3)c1Cl)n2C (centres unmarked) [Example B-19] | < 100 nM
Cn1c(C(=O)c2c(Cl)ccc(C(=O)N3CCC(CC(=O)O)CC3)c2Cl)cc2ccc(OC(F)(F)F)cc21 [Example GI, 2-(1-(2,4-dichloro-3-(1-methyl-6-(trifluoromethoxy)-1H-indole-2-carbonyl)benzoyl)piperidin-4-yl)acetic acid] | < 100 nM
Cc1cc(C(F)(F)F)cc2c1cc(Cc1c(Cl)ccc(C(=O)N3CCC(C(=O)O)CC3)c1Cl)n2C [B, 1-(2,4-dichloro-3-((1,4-dimethyl-6-(trifluoromethyl)-1H-indol-2-yl)methyl)benzoyl)piperidine-4-carboxylic acid] | < 100 nM
Cc1cc(C#N)cc2c1nc(Cc1c(Cl)ccc(C(=O)N3CCC(C(C)(C)CO)CC3)c1Cl)n2C [BN-6] | 100 to 500 nM
Cc1cc(C#N)cc2c1cc(Cc1c(Cl)ccc(O[C@H]3CC[C@H](C(=O)O)C3)c1Cl)n2C (relative stereo) [Example AG, trans-3-(2,4-dichloro-3-((6-cyano-1,4-dimethyl-1H-indol-2-yl)methyl)phenoxy)cyclopentanecarboxylic acid] | 100 to 500 nM
Cn1c(Cc2c(Cl)ccc(C(=O)N3CCOCC3)c2Cl)cc2cccnc21 [CK, (2,4-dichloro-3-((1-methyl-1H-pyrrolo[2,3-b]pyridin-2-yl)methyl)phenyl)(morpholino)methanone] | 1000 to 10000 nM
Cc1cc(C(F)(F)F)cc2c1c(Cc1c(Cl)cnc(C(=O)N3CCC(CC(=O)O)CC3)c1Cl)cn2C [DW, 2-[1-[3,5-dichloro-4-[[1,4-dimethyl-6-(trifluoromethyl)-1H-indol-3-yl]methyl]pyridine-2-carbonyl]-4-piperidyl]acetic acid] | < 100 nM
Cn1c(C(=O)c2c(Cl)ccc(C(=O)N3CCOCC3)c2Cl)cc2ncc(C(F)(F)F)cc21 [CP, (2,4-dichloro-3-(1-methyl-6-(trifluoromethyl)-1H-pyrrolo[3,2-b]pyridine-2-carbonyl)phenyl)(morpholino)methanone] | 1000 to 10000 nM
Cc1cn(Cc2c(Cl)ccc(C(=O)N3CCC(O)CC3)c2Cl)c2c(C)cc(C#N)cc12 [DK, 1-(2,6-dichloro-3-(4-hydroxypiperidine-1-carbonyl)benzyl)-3,7-dimethyl-1H-indole-5-carbonitrile] | 100 to 500 nM
Cc1cc(C(F)(F)F)cn2c(C)c(Cc3c(Cl)ccc(C(=O)N4CCC(C(C)O)CC4)c3Cl)nc12 (centres unmarked) [CT-11] | 100 to 500 nM
Cc1cc(C#N)cc2c1nc(Cc1c(Cl)ccc(C(=O)N3CCOCC3)c1Cl)n2C(C)C [CH, 2-(2,6-dichloro-3-(morpholine-4-carbonyl)benzyl)-1-isopropyl-4-methyl-1H-benzo[d]imidazole-6-carbonitrile] | < 100 nM
Cn1c(Cc2c(Cl)ccc(C(=O)N3CCOCC3)c2Cl)cc2c(Cl)cc(C#N)cc21 [DQ, 4-chloro-2-(2,6-dichloro-3-(morpholine-4-carbonyl)benzyl)-1-methyl-1H-indole-6-carbonitrile] | < 100 nM
Cc1cn(Cc2c(Cl)ccc(C(=O)N3CCC(CC(=O)O)CC3)c2Cl)c2c(C)cc(C#N)cc12 [DL, 2-(1-(2,4-dichloro-3-((5-cyano-3,7-dimethyl-1H-indol-1-yl)methyl)benzoyl)piperidin-4-yl)acetic acid] | < 100 nM
Cn1c(Cc2c(Cl)ccc(C(=O)N3CCOCC3)c2Cl)cc2ccc(C#N)cc21 [Example AC, 2-(2,6-dichloro-3-(morpholine-4-carbonyl)benzyl)-1-methyl-1H-indole-6-carbonitrile] | 100 to 500 nM
Cc1nn(Cc2c(Cl)ccc(C(=O)N3CCC(CC(=O)O)CC3)c2Cl)c2ccc(C(F)(F)F)cc12 [EF, 2-(1-(2,4-dichloro-3-((3-methyl-5-(trifluoromethyl)-1H-indazol-1-yl)methyl)benzoyl)piperidin-4-yl)acetic acid] | < 100 nM
Cc1cc(C(F)(F)F)cc2c1nc(Cc1c(Cl)ccc(CN3CCCC(C)(O)C3)c1Cl)n2C (centres unmarked) [BW-17] | 100 to 500 nM
O=C(O)CC1CCN(C(=O)c2ccc(Cl)c(Cn3ccc4cc(C(F)(F)F)cc(Cl)c43)c2Cl)CC1 [EI-5] | < 100 nM
O=C(O)CC1CCN(C(=O)c2ccc(Cl)c(Cn3ccc4cc(OC(F)(F)F)ccc43)c2Cl)CC1 [EI, 2-(1-(2,4-dichloro-3-((5-(trifluoromethoxy)-1H-indol-1-yl)methyl)benzoyl)piperidin-4-yl)acetic acid] | < 100 nM
Cc1cc(C(F)(F)F)cc2c1cc(C(=O)c1c(Cl)ccc(C(=O)N3CC[C@H](C(=O)O)[C@H](C)C3)c1Cl)n2C (racemic) [AQ-3] | < 100 nM
Cc1cc(C(F)(F)F)cc2c1cc(Cc1c(Cl)ccc(C(=O)N3CCN(C(C)(C)C(=O)O)CC3)c1Cl)n2C [Example T, 2-(4-(2,4-dichloro-3-((1,4-dimethyl-6-(trifluoromethyl)-1H-indol-2-yl)methyl)benzoyl)piperazin-1-yl)-2-methylpropanoic acid] | 100 to 500 nM

— US10106501B2, “Nuclear receptor modulators” (AbbVie Inc., priority 2015, dated 2018)
